The values that follow come from ChEMBL document CHEMBL1201862, “PubChem BioAssay data set” (2004).

As usually defined, the EC50 is the midpoint of the concentration-response curve. As usually defined, the CC50 is the concentration giving 50% cytotoxicity.

Active and inactive are the calls of the source.

For assay [1], the target named is T1, RNA-binding protein pos-1 (Caenorhabditis elegans, UniProt G5EF15).
T1 sequence (G5EF15 whole entry): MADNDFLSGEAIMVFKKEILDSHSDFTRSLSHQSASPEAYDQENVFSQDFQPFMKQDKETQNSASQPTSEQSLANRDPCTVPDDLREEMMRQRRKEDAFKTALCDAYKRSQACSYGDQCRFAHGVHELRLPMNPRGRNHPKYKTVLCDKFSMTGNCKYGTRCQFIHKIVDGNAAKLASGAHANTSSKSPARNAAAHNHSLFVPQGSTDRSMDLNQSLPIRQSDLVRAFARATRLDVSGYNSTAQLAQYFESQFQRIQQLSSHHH
The assay can be described thus: inhibitors of POS-1/mex-3 RNA binding, dose response, biochemical, fluorescence polarization (AID 1964).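 Note: purified POS-1 fused to maltose binding protein made in E. coli; potency of compounds blocking POS-1 binding to fluorescent RNA.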 Background: Polarisation of emitted light reports the rotation of a fluorescent probe.

Assay [2] has as its system BJ. As to the kind of experiment: cytotoxicity toward BJ-TERT fibroblasts, dose response, cell-based, RAS-independent, luminescence (AID 1933). Format: functional. Particulars: Homo sapiens.
In assay [3] the target is T2, Zinc finger protein mex-5 (Caenorhabditis elegans, UniProt Q9XUB2).
T2 sequence (Q9XUB2 whole entry): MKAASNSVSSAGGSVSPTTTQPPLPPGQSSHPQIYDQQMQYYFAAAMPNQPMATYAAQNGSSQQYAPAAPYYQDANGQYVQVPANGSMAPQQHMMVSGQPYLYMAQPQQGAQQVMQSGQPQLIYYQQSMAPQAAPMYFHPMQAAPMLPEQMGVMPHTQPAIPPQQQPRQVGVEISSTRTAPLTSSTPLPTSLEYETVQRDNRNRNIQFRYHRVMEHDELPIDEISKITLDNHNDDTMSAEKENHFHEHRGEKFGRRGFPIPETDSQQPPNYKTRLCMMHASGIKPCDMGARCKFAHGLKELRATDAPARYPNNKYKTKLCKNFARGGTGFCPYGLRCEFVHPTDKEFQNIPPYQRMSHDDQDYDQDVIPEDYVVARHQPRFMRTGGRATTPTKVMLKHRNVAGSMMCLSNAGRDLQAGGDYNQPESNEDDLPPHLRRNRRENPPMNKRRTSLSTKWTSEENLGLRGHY
As to the kind of experiment: MEX-5/TCR-2 RNA interaction inhibitors, dose response, biochemical, C. elegans, fluorescence polarization (AID 1960).

In assay [4] the test system is BJ. The assay can be described thus: cells. Format: functional, cell-based. Particulars: Homo sapiens.
Assay [5] deals with BJ. As to the kind of experiment: cytotoxicity toward BJ-TERT-LT-ST fibroblasts, dose response, cell-based, RAS-independent, luminescence (AID 1935).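 Note: BJ fibroblasts immortalized with TERT plus LT and ST oncogenes.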 Format: functional. As to conditions: Homo sapiens.
Assay [6] is described as follows: cytotoxicity toward DRD oncogenic fibroblasts, dose response, cell-based, non-viral oncogenic, luminescence (AID 1934). Particulars: Homo sapiens. Format: functional.
The test system of assay [7] is BJ. The assay can be described thus: cytotoxicity toward Ras-transformed BJeLR fibroblasts, dose response, cell-based, alamar blue fluorescence, cherrypicked samples (AID 2631).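 Note: confirmatory dose-response assay in RAS-dependent BJ fibroblasts engineered with TERT, LT and ST, with cytotoxicity read by fluorescence.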 Format: functional. As to conditions: Homo sapiens.
The target of the next assay is Protein Wnt-3a (Mus musculus, UniProt P27467). The assay can be described thus: Wnt3a-driven reporter signaling inhibition, dose response, selectivity assay for Gli-SUFU antagonist project, Wnt-LIGHT cells, luminescence (AID 651570).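 Note: Wnt-LIGHT reporter cells stimulated with conditioned medium from Wnt3a-producing cells.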 Particulars: read-out: IC50_Mean. Format: functional.
Sequence of Protein Wnt-3a (P27467 whole entry): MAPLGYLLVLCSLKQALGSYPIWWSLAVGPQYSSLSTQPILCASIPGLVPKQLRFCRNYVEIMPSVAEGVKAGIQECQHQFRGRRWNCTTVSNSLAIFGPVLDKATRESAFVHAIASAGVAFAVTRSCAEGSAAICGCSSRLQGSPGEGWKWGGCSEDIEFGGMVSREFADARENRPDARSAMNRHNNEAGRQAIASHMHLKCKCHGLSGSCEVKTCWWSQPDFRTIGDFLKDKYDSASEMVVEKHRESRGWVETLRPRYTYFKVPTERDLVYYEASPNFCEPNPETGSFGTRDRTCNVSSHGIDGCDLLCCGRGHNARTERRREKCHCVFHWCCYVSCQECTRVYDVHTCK
Assay [8] deals with Photoreceptor-specific nuclear receptor (Homo sapiens, UniProt Q9Y5X4). Format: functional, cell-based.
Sequence of Photoreceptor-specific nuclear receptor (Q9Y5X4 whole entry): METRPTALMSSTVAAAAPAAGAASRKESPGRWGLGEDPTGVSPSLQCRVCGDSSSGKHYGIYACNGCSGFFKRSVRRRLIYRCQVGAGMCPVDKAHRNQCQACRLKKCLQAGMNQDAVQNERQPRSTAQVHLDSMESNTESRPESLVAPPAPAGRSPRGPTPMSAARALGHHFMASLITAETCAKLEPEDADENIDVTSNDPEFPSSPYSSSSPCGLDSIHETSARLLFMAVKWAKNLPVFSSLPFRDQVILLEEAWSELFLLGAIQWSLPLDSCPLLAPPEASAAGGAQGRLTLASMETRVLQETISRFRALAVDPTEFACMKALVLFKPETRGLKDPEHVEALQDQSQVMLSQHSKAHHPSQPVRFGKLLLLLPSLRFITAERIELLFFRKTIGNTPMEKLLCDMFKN
The test system of a further assay is Vero. As to the kind of experiment: Vero cell cytotoxicity, cytotoxicity control for flavivirus capping enzyme inhibitors (AID 588742). Format: functional. As to conditions: Chlorocebus sabaeus.
The target in assay [9] is T3, Sentrin-specific protease 1 (Homo sapiens, UniProt Q9P0U3).
T3 sequence (Q9P0U3 whole entry): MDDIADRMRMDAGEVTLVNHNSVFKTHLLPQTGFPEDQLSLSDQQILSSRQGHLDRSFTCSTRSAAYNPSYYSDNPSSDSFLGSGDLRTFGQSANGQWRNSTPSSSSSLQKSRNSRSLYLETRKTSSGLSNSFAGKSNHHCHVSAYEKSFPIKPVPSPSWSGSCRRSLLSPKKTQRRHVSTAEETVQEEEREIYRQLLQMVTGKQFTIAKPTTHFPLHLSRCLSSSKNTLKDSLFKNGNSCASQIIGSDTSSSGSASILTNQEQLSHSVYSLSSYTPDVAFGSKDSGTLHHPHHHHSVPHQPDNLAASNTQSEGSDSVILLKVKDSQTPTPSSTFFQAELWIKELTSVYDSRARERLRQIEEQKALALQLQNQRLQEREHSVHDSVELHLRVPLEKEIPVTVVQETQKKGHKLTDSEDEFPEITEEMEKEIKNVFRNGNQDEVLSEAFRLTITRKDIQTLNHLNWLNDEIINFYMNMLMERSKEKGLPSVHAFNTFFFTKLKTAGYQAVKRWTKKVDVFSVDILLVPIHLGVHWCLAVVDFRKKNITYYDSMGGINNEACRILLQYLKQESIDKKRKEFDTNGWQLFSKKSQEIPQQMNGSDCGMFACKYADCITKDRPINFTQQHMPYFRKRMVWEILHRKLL
The assay can be described thus: potency of human SENP1 inhibitors, dose response, biochemical, kinetic FRET (AID 651697). Format: functional. As to conditions: read-out: IC50_Mean.

Assay [10] concerns the target T3, Sentrin-specific protease 1. As to the kind of experiment: Dose response confirmation of small molecule inhibitors of the catalytic domain of the SUMO protease, SENP1 in a FRET assay. Particulars: read-out: IC50_Mean. Format: functional.
Assay [11] in a line: A Cell Based Secondary Assay To Explore Cytotoxicity of Compounds that Sensitize Mycobacterium Tuberculosis to Beta-Lactam Antibiotics. Format: functional.
The target of another assay is Melanocortin receptor 4 (Homo sapiens, UniProt P32245). Format: functional, cell-based.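 Note: Cell-based assay with luminescence read-out, confirmatory dose-response testing for agonist activity of biased ligands at MC4R; human U2OS cells with tagged receptor and beta-arrestin; potency of agonists that increase receptor coupling to beta-arrestin.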
Sequence of Melanocortin receptor 4 (P32245 whole entry): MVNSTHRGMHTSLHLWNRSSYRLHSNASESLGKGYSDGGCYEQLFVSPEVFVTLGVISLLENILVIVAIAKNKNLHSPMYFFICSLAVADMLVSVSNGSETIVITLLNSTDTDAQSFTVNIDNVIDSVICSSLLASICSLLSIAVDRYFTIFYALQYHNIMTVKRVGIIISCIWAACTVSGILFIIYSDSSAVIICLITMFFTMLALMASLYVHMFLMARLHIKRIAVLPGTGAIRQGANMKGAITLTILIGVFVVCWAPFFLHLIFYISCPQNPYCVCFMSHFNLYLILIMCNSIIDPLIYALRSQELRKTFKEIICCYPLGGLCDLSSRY

Regarding `COc1ccc(N2C(=O)/C(=C/c3ccc(C)o3)C(=O)NC2=S)cc1`, the EC50 in assay [1] was > 300 µM (not active); with BJ [2], > 150 µM (not active); in assay [3], > 300 µM (not active); in the assay on BJ [4], 17 µM (active); with BJ [5], > 75 µM (inconclusive); in [6] it was 15.9 µM (active). Also, the EC50 in the assay on BJ [7] is > 133 µM (inactive).

Regarding `Brc1ccc(-c2cn3c([n+]2-c2ccccc2)SCC3)cc1`, the IC50 on Protein Wnt-3a is 17.2 µM (active).

For the molecule `C=C(C(=O)c1ccccc1)C(NC(C)(C)C)c1ccccc1` (centres undefined), the IC50 in assay [8] was 2.01 µM (active).

Turning to `CCn1c(=O)c(C(=O)CN2CCc3ccccc32)c(N)n(Cc2ccccc2)c1=O`, the CC50 in the assay on Vero is > 40 µM (active).

Take `O=C1NC(=O)/C(=C/c2c(O)ccc3ccccc23)N1`: the IC50 in assay [9] is 6.2 µM (active); in [10] it was 4.34 µM (active).

As for `Clc1ccc(/C=N/NC2=Nc3cccc4cccc2c34)cc1`, the CC50 in [11] is 21.4 µM (active). Moreover, the EC50 on Melanocortin receptor 4 is > 89.1 µM (inactive).
